The values below are quoted from earlier work in patent US20220226447A1, “ANTI-ABETA VACCINE THERAPY” (AC Immune SA, priority 2019, published 2022).

The conditions of the data set: human, in vivo.

As to AN1792: full-length Aβ1-42 vaccine, the antibody response result is given as “induced an antibody response”, the “rate of cognitive decline versus placebo-treated patients” value is “slower rate of cognitive decline” and the “treated patients who developed meningoencephalitis” value was 6%.
